We go through 20 molecules from the supplement of paper PMC11368000.

Where only a bound is given, the exact number is not on record here.

For the first assay, the system named is 1083 (donor line of iPSC-derived cardiomyocytes). Description: POD (EC05) for decrease in beat frequency (negative chronotrope) vs vehicle; higher = less potent (higher point of departure). Particulars: exposure time: 90 min. As to the method: (§1)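 Human iPSC-derived cardiomyocytes from 16 donors were exposed for 90 min at 37 °C to each PFAS at 0.1, 1, 10 and 100 µM in 0.5% DMSO, 384-well plates. Kinetic Ca2+ flux (FLIPR) and Hoechst nuclei counts were normalised to vehicle wells and fitted with a hierarchical Bayesian Hill model to give donor-specific PODs: EC05 for beat-rate increase or decrease and for decay-to-rise ratio increase (QT proxy), EC95 for peak-frequency loss (asystole), EC10 for total cell number loss. 0.03 µM is the lower bound.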
As to `NC(=O)C(F)(F)C(F)(F)C(F)(F)C(F)F`, the POD vs vehicle is greater than 100 µM.
On the same count and under the same terms, the result for `OCC(O)CC(F)(F)C(F)(F)C(F)(F)C(F)(F)C(F)(F)C(F)(F)C(F)(F)C(F)(F)F` (centres undefined) [1-(Perfluorofluorooctyl)propane-2,3-diol] reads 24.4 µM; that for `CC(O)C(F)(F)C(F)(F)F` (centres undefined) [1-Pentafluoroethylethanol], greater than 100 µM.
On the same count and under the same terms, the result for `OCC(F)(F)C(F)(F)C(F)(F)C(F)F` [1H,1H,5H-Perfluoropentanol] reads greater than 100 µM.
In the case of `O=S(=O)(OCC(F)(F)F)C(F)(F)C(F)(F)C(F)(F)C(F)(F)F` [2,2,2-Trifluoroethyl_perfluorobutanesulfonate], the POD vs vehicle was greater than 100 µM.
As for `O=C(O)C(F)(F)C(F)(F)C(F)F` [2,2,3,3,4,4-Hexafluorobutanoic_acid], the POD vs vehicle was greater than 100 µM.
The same measure, in the same setting: as for `NC(O)(C(F)(F)F)C(F)(F)F` [2-Aminohexafluoropropan-2-ol], the figure is greater than 100 µM; as for `O=C(O)CCC(F)(F)C(F)(F)C(F)(F)C(F)(F)C(F)(F)F` [2H,2H,3H,3H-Perfluorooctanoic_acid], 39.6 µM; as for `O=C(O)C=C(C(F)(F)F)C(F)(F)F` [3,3-Bis(trifluoromethyl)-2-propenoic_acid], greater than 100 µM.
For the molecule `O=C(O)C=CC(F)(C(F)(F)F)C(F)(F)F` [3-(Perfluoroisopropyl)-2-propenoic_acid], the POD vs vehicle is greater than 100 µM.
`O=C(O)CCC(F)(F)C(F)(F)C(F)(F)C(F)(F)C(F)(F)C(F)(F)C(F)(F)F` [3-Perfluoroheptylpropanoic_acid] yielded a POD vs vehicle greater than 100 µM.
On the same count and under the same terms, as for `O=C(O)CCC(F)(F)C(F)(F)C(F)(F)F` [3:3 Fluorotelomer carboxylic acid], the figure is greater than 100 µM; as for `O=C(CC(=O)C(F)(F)C(F)(F)F)C(F)(F)F` [3H,3H-Perfluoro-2,4-hexanedione], greater than 100 µM.
Turning to `OCCC(F)(F)C(F)(F)C(F)(F)C(F)(F)F` [4:2 Fluorotelomer alcohol], the POD vs vehicle was greater than 100 µM.
In turn, `O=S(=O)(O)CCC(F)(F)C(F)(F)C(F)(F)C(F)(F)F` [4:2 Fluorotelomer sulfonic acid] yielded a POD vs vehicle greater than 100 µM.
`OCC(F)(F)C(F)(F)C(F)(F)C(F)(F)C(F)(F)C(F)(F)F` [6:1 Fluorotelomer alcohol] yielded a POD vs vehicle of 24.6 µM.
With `NC(=O)C(F)(F)C(F)(F)C(F)(F)F` [Heptafluorobutyramide], the POD vs vehicle is greater than 100 µM.
Still for that read-out and setting: the result for `CN(CCO)S(=O)(=O)C(F)(F)C(F)(F)C(F)(F)C(F)(F)C(F)(F)C(F)(F)C(F)(F)C(F)(F)F` [N-Methyl-N-(2-hydroxyethyl)perfluorooctanesulfonamide] reads 16.9 µM; that for `NC(=O)C(F)(F)C(F)(F)C(F)(F)C(F)(F)C(F)(F)C(F)(F)C(F)(F)F` [Perfluorooctanamide], greater than 100 µM.
As for `N=C(N)C(F)(F)C(F)(F)C(F)(F)C(F)(F)C(F)(F)C(F)(F)C(F)(F)F` [Perfluorooctanamidine], the POD vs vehicle is greater than 100 µM.

The next assay relates to 1518 (donor line of iPSC-derived cardiomyocytes). The description is as above. Particulars: exposure time: 90 min. As to the method: as §1
Consider `NC(=O)C(F)(F)C(F)(F)C(F)(F)C(F)F`, for which the POD vs vehicle was greater than 100 µM.
Molecule `OCC(O)CC(F)(F)C(F)(F)C(F)(F)C(F)(F)C(F)(F)C(F)(F)C(F)(F)C(F)(F)F` (centres undefined) [1-(Perfluorofluorooctyl)propane-2,3-diol] had a POD vs vehicle greater than 100 µM.
On to `CC(O)C(F)(F)C(F)(F)F` (centres undefined) [1-Pentafluoroethylethanol], for which the POD vs vehicle is greater than 100 µM.
`OCC(F)(F)C(F)(F)C(F)(F)C(F)F` [1H,1H,5H-Perfluoropentanol]: the POD vs vehicle is greater than 100 µM.
On to `O=S(=O)(OCC(F)(F)F)C(F)(F)C(F)(F)C(F)(F)C(F)(F)F` [2,2,2-Trifluoroethyl_perfluorobutanesulfonate], for which the POD vs vehicle is greater than 100 µM.
`O=C(O)C(F)(F)C(F)(F)C(F)F` [2,2,3,3,4,4-Hexafluorobutanoic_acid] yielded a POD vs vehicle greater than 100 µM.
Turning to `NC(O)(C(F)(F)F)C(F)(F)F` [2-Aminohexafluoropropan-2-ol], the POD vs vehicle is greater than 100 µM.
Molecule `O=C(O)CCC(F)(F)C(F)(F)C(F)(F)C(F)(F)C(F)(F)F` [2H,2H,3H,3H-Perfluorooctanoic_acid] returned a POD vs vehicle greater than 100 µM.
In the case of `O=C(O)C=C(C(F)(F)F)C(F)(F)F` [3,3-Bis(trifluoromethyl)-2-propenoic_acid], the POD vs vehicle was greater than 100 µM.
Take `O=C(O)C=CC(F)(C(F)(F)F)C(F)(F)F` [3-(Perfluoroisopropyl)-2-propenoic_acid]: the POD vs vehicle was greater than 100 µM.
Molecule `O=C(O)CCC(F)(F)C(F)(F)C(F)(F)C(F)(F)C(F)(F)C(F)(F)C(F)(F)F` [3-Perfluoroheptylpropanoic_acid] registered a POD vs vehicle greater than 100 µM.
Same read-out and setting: as for `O=C(O)CCC(F)(F)C(F)(F)C(F)(F)F` [3:3 Fluorotelomer carboxylic acid], the figure is greater than 100 µM; as for `O=C(CC(=O)C(F)(F)C(F)(F)F)C(F)(F)F` [3H,3H-Perfluoro-2,4-hexanedione], greater than 100 µM; as for `OCCC(F)(F)C(F)(F)C(F)(F)C(F)(F)F` [4:2 Fluorotelomer alcohol], greater than 100 µM.
Molecule `O=S(=O)(O)CCC(F)(F)C(F)(F)C(F)(F)C(F)(F)F` [4:2 Fluorotelomer sulfonic acid] had a POD vs vehicle greater than 100 µM.
`OCC(F)(F)C(F)(F)C(F)(F)C(F)(F)C(F)(F)C(F)(F)F` [6:1 Fluorotelomer alcohol]: the POD vs vehicle is greater than 100 µM.
As for `NC(=O)C(F)(F)C(F)(F)C(F)(F)F` [Heptafluorobutyramide], the POD vs vehicle was greater than 100 µM.
Molecule `CN(CCO)S(=O)(=O)C(F)(F)C(F)(F)C(F)(F)C(F)(F)C(F)(F)C(F)(F)C(F)(F)C(F)(F)F` [N-Methyl-N-(2-hydroxyethyl)perfluorooctanesulfonamide] yielded a POD vs vehicle greater than 100 µM.
As to `NC(=O)C(F)(F)C(F)(F)C(F)(F)C(F)(F)C(F)(F)C(F)(F)C(F)(F)F` [Perfluorooctanamide], the POD vs vehicle was greater than 100 µM.
As to `N=C(N)C(F)(F)C(F)(F)C(F)(F)C(F)(F)C(F)(F)C(F)(F)C(F)(F)F` [Perfluorooctanamidine], the POD vs vehicle was greater than 100 µM.

The test system of the next assay is 1535 (donor line of iPSC-derived cardiomyocytes). The description is as above. Particulars: exposure time: 90 min. On the procedure:
as §1
Consider `NC(=O)C(F)(F)C(F)(F)C(F)(F)C(F)F`, for which the POD vs vehicle is greater than 100 µM.
The molecule `OCC(O)CC(F)(F)C(F)(F)C(F)(F)C(F)(F)C(F)(F)C(F)(F)C(F)(F)C(F)(F)F` (centres undefined) [1-(Perfluorofluorooctyl)propane-2,3-diol] yielded a POD vs vehicle greater than 100 µM.
The molecule `CC(O)C(F)(F)C(F)(F)F` (centres undefined) [1-Pentafluoroethylethanol] showed a POD vs vehicle greater than 100 µM.
In the case of `OCC(F)(F)C(F)(F)C(F)(F)C(F)F` [1H,1H,5H-Perfluoropentanol], the POD vs vehicle is greater than 100 µM.
The molecule `O=S(=O)(OCC(F)(F)F)C(F)(F)C(F)(F)C(F)(F)C(F)(F)F` [2,2,2-Trifluoroethyl_perfluorobutanesulfonate] yielded a POD vs vehicle greater than 100 µM.
Molecule `O=C(O)C(F)(F)C(F)(F)C(F)F` [2,2,3,3,4,4-Hexafluorobutanoic_acid] had a POD vs vehicle greater than 100 µM.
Regarding `NC(O)(C(F)(F)F)C(F)(F)F` [2-Aminohexafluoropropan-2-ol], the POD vs vehicle was 83.8 µM.
On the same count and under the same terms, the result for `O=C(O)CCC(F)(F)C(F)(F)C(F)(F)C(F)(F)C(F)(F)F` [2H,2H,3H,3H-Perfluorooctanoic_acid] reads 75.1 µM; that for `O=C(O)C=C(C(F)(F)F)C(F)(F)F` [3,3-Bis(trifluoromethyl)-2-propenoic_acid], greater than 100 µM.
